Assays:
[1] = tested on: ABUTH; assay: Pre-emergence herbicidal action against ABUTH; type: in vivo, Abutilon theophrasti
Outline: (§1)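 Herbicidal effect was assessed 3 weeks after treatment by visual comparison with untreated controls, 100% denoting dead plants. Aqueous WP or EC preparations had been applied at 600 to 800 l/ha with 0.2% wetting agent to the soil covering freshly sown seeds.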

[2] = tested on: ALOMY; assay: Pre-emergence herbicidal action against ALOMY; type: in vivo, Alopecurus myosuroides; settings: 80 g/ha, pre-emergence, scored visually after 3 weeks vs untreated controls (100% = plants have died, 0% = like control plants)
Outline: as §1

[3] = tested on: AMARE; assay: Pre-emergence herbicidal action against AMARE; type: in vivo, Amaranthus retroflexus
Outline: as §1

[4] = tested on: AVEFA; assay: Pre-emergence herbicidal action against AVEFA; type: in vivo, Avena fatua; settings: pre-emergence
Outline: as §1

[5] = tested on: HORMU; assay: Pre-emergence herbicidal action against HORMU; type: in vivo, Hordeum murinum; settings: 80 g/ha, pre-emergence
Description: Seeds of monocotyledonous and dicotyledonous weed plants and crop plants are laid out in sandy loam soil in wood-fiber pots and covered with soil. The compounds of the invention, formulated in the form of wettable powders (WP) or as emulsion concentrates (EC), are then applied to the surface of the covering soil in the form of an aqueous suspension or emulsion at a water application rate equivalent to 600 to 800 l/ha, with addition of 0.2% wetting agent. After the treatment, the pots are placed in a greenhouse and kept under good growth conditions for the trial plants. The damage to the test plants is scored visually after a test period of 3 weeks by comparison with untreated controls (herbicidal activity in percent (%): 100% activity=the plants have died, 0% activity=like control plants). […] The tables below illustrate, in an illustrative manner, the post-emergence herbicidal action of the compounds of the invention, the herbicidal activity being stated in percent.

[6] = tested on: MATIN; assay: Pre-emergence herbicidal action against MATIN; type: in vivo, Matricaria inodora
Outline: as §1

[7] = tested on: POLCO; assay: Pre-emergence herbicidal action against POLCO; type: in vivo, Polygonum convolvulus
Outline: as §1

[8] = tested on: STEME; assay: Pre-emergence herbicidal action against STEME; type: in vivo, Stellaria media
Outline: as §1

[9] = tested on: VIOTR; assay: Pre-emergence herbicidal action against VIOTR; type: in vivo, Viola tricolor
Outline: as §1

[10] = tested on: DIGSA; assay: Pre-emergence herbicidal action against DIGSA; type: in vivo, Digitaria sanguinalis
Outline: as §1

[11] = tested on: ABUTH; assay: Post-emergence herbicidal action against ABUTH; type: in vivo, Abutilon theophrasti; settings: visual assessment about 3 weeks after treatment vs untreated controls
Outline: (§2)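 Herbicidal effect was scored visually in percent after about 3 weeks in the greenhouse. Plants had been raised in sandy loam and treated post-emergence at the one-leaf stage with formulated compound at 600 to 800 l/ha water plus 0.2% wetting agent.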

[12] = tested on: ALOMY; assay: Post-emergence herbicidal action against ALOMY; type: in vivo, Alopecurus myosuroides; settings: dosage 20 g/ha, visual assessment about 3 weeks after treatment vs untreated controls
Outline: as §2

[13] = tested on: AMARE; assay: Post-emergence herbicidal action against AMARE; type: in vivo, Amaranthus retroflexus; settings: 20 g/ha, visual assessment about 3 weeks after treatment, 100% = plants have died, 0% = like control plants
Outline: as §2

[14] = tested on: MATIN; assay: Post-emergence herbicidal action against MATIN; type: in vivo, Matricaria inodora
Outline: as §2

[15] = tested on: PHBPU; assay: Post-emergence herbicidal action against PHBPU; type: in vivo, Pharbitis purpurea
Outline: as §2

[16] = tested on: STEME; assay: Post-emergence herbicidal action against STEME; type: in vivo, Stellaria media; settings: 20 g/ha
Outline: as §2

[17] = tested on: VIOTR; assay: Post-emergence herbicidal action against VIOTR; type: in vivo, Viola tricolor; settings: Viola tricolor, 504 h, 20 g/ha
Outline: as §2

[18] = tested on: ECHCG; assay: Pre-emergence herbicidal action against ECHCG; type: in vivo, Echinochloa crus-galli; settings: 80 g/ha
Outline: as §1

[19] = tested on: SETVI; assay: Pre-emergence herbicidal action against SETVI; type: in vivo, Setaria viridis; settings: dosage 80 g/ha
Outline: as §1

[20] = tested on: ECHCG; assay: Post-emergence herbicidal action against ECHCG; type: in vivo, Echinochloa crus-galli
Outline: as §2

[21] = tested on: DIGSA; assay: Post-emergence herbicidal action against DIGSA; type: in vivo, Digitaria sanguinalis
Outline: as §2

[22] = Tripleurospermum inodorum, 504 h, dosage 20 g/ha
[23] = 80 g/ha, scored visually after 3 weeks vs untreated controls (100% = plants have died, 0% = like control plants)

CCCn1nnnc1NC(=O)c1ccc(C(F)(F)F)c(C(=O)NCC)c1C [Example 3-26]
pest or weed control at 80 g/ha ([1]; Abutilon theophrasti, 504 h, 80 g/ha, scored visually after 3 weeks vs untreated controls (100% = plants have died, 0% = like control plants)): 100%
pest or weed control at 20 g/ha ([1]; Abutilon theophrasti, 504 h, dosage 20 g/ha, scored visually after 3 weeks vs untreated controls, 100% = plants have died, 0% = like control plants, read-out: Pre-emergence action against ABUTH (herbicidal activity in percent)): 100%
pest or weed control at 80 g/ha ([2]; Alopecurus myosuroides, 504 h): 80%
pest or weed control at 20 g/ha ([3]; Amaranthus retroflexus, 504 h, 20 g/ha, scored visually after 3 weeks vs untreated controls, 100% = plants have died, 0% = like control plants): 100%
pest or weed control at 80 g/ha ([3]; Amaranthus retroflexus, 504 h, 80 g/ha, scored visually after 3 weeks vs untreated controls, 100% = plants have died, 0% = like control plants): 100%
pest or weed control at 80 g/ha ([4]; Avena fatua, 504 h, 80 g/ha): 100%
pest or weed control at 20 g/ha ([4]; Avena fatua, 504 h, 20 g/ha, scored visually after 3 weeks, 100% = plants have died, 0% = like control plants): 80%
pest or weed control at 80 g/ha ([5]; Hordeum murinum, 504 h): 80%
pest or weed control at 20 g/ha [6, 22]: 90%
pest or weed control at 80 g/ha ([6]; Tripleurospermum inodorum, 504 h, dosage 80 g/ha): 100%
pest or weed control at 20 g/ha ([7]; Fallopia convolvulus, 504 h, dosage 20 g/ha): 80%
pest or weed control at 80 g/ha ([7]; Fallopia convolvulus, 504 h, dosage 80 g/ha): 90%
pest or weed control at 20 g/ha ([8]; Stellaria media, 504 h, dosage 20 g/ha): 80%
pest or weed control at 80 g/ha ([8]; Stellaria media, 504 h, dosage 80 g/ha): 100%
pest or weed control at 20 g/ha ([9]; Viola tricolor, 504 h, dosage 20 g/ha): 100%
pest or weed control at 80 g/ha ([9]; Viola tricolor, 504 h, dosage 80 g/ha): 100%
pest or weed control at 80 g/ha ([10]; Digitaria sanguinalis, 504 h, dosage 80 g/ha): 100%
pest or weed control at 5 g/ha ([11]; Abutilon theophrasti, 504 h, dosage 5 g/ha): 80%
pest or weed control at 20 g/ha ([11]; Abutilon theophrasti, 504 h, dosage 20 g/ha): 90%
pest or weed control at 20 g/ha ([12]; Alopecurus myosuroides, 504 h): 80%
pest or weed control at 20 g/ha ([13]; Amaranthus retroflexus, 504 h): 90%
pest or weed control at 5 g/ha ([14]; Tripleurospermum inodorum, 504 h, dosage 5 g/ha): 90%
pest or weed control at 20 g/ha [14, 22]: 90%
pest or weed control at 5 g/ha ([15]; Ipomoea purpurea, 504 h, dosage 5 g/ha): 80%
pest or weed control at 20 g/ha ([15]; Ipomoea purpurea, 504 h, dosage 20 g/ha): 90%
pest or weed control at 20 g/ha ([16]; Stellaria media, 504 h): 90%
pest or weed control at 20 g/ha [17]: 90%

CCNC(=O)c1c(C(F)(F)F)ccc(C(=O)Nc2nnc(C)o2)c1Br [Example 6-159]
Pre-emergence action against ABUTH (herbicidal activity) [1, 23]: 100%
Pre-emergence action against ABUTH (herbicidal activity in percent) ([1]; dosage 20 g/ha, scored visually after 3 weeks vs untreated controls, 100% = plants have died, 0% = like control plants): 100%
Pre-emergence action against ALOMY (herbicidal activity) [2]: 80%
Pre-emergence action against AMARE in % ([3]; 20 g/ha, scored visually after 3 weeks vs untreated controls, 100% = plants have died, 0% = like control plants): 100%
Pre-emergence action against AMARE in % [3, 23]: 100%
Pre-emergence action against AVEFA in % ([4]; 80 g/ha): 90%
Pre-emergence action against ECHCG in % [18]: 100%
Pre-emergence action against HORMU in % [5]: 80%
Pre-emergence action against MATIN in % ([6]; dosage 20 g/ha): 100%
Pre-emergence action against MATIN in % ([6]; dosage 80 g/ha): 100%
Pre-emergence action against POLCO in % ([7]; dosage 80 g/ha): 80%
Pre-emergence action against SETVI in % [19]: 100%
Pre-emergence action against STEME in % ([8]; dosage 20 g/ha): 80%
Pre-emergence action against STEME in % ([8]; dosage 80 g/ha): 100%
Pre-emergence action against VIOTR in % ([9]; dosage 80 g/ha): 100%
Pre-emergence action against DIGSA in % ([10]; dosage 20 g/ha): 90%
Pre-emergence action against DIGSA in % ([10]; dosage 80 g/ha): 100%
Post-emergence action against ABUTH in % ([11]; dosage 5 g/ha): 90%
Post-emergence action against ABUTH in % ([11]; dosage 20 g/ha): 100%
Post-emergence action against ALOMY in % [12]: 80%
Post-emergence action at 20 g/ha against AMARE in % [13]: 100%
Post-emergence action against ECHCG in % ([20]; dosage 5 g/ha): 80%
Post-emergence action against ECHCG in % ([20]; dosage 20 g/ha): 90%
Post-emergence action against MATIN in % ([14]; dosage 20 g/ha): 90%
Post-emergence action against PHBPU in % ([15]; dosage 20 g/ha): 80%
Post-emergence action against STEME in % [16]: 90%
Post-emergence action against DIGSA in % ([21]; 5 g/ha): 80%
Post-emergence action against DIGSA ([21]; 20 g/ha): 90%

From patent US12655116B2, “Substituted isophthalic acid diamides” (Bayer Aktiengesellschaft, priority 2020, dated 2026)
